In one assay the test system is E. aerogenes. Kind of assay: MIC of bacterial growth (Table 2). To be noted: Klebsiella aerogenes; E. aerogenes clinical isolate (Table 2). The format is cell-based, Enterobacter aerogenes. The protocol:
(§1) Determination of the minimum inhibitory concentration (MIC) of bacterial growth. The MIC of various organisms in liquid media was determined using the macrodilution method according to the NCCLS guidelines. For the starting inoculum, cultures were diluted to contain approximately 5×10^5 cells/mL in growth media. To create a two-fold dilution series for the macrodilution technique, each compound was added to the first culture tube (4 mL total volume) at the highest concentration. 2 mL of this culture was diluted into an equal volume of inoculated media (a two-fold dilution). The final volume for each culture was 2 mL.

Another assay relates to Acinetobacter baumannii. The experiment in a line: MIC of DCAP analogs, LB media, microdilution (CLSI). The class given is cell-based. To be noted: microdilution (Table 6). The protocol: (§2) Luria-Bertani (LB) media (10 g/L tryptone, 10 g/L NaCl, 5 g/L yeast extract, pH 7.0) was used to grow all the strains represented in Tables 5 and 6. All the cultures were grown at 37° C. All the E. coli strains were grown while shaking at 200 rpm and the clinical pathogens were statically incubated.
(§3) For clinical pathogenic organisms including S. typhimurium, V. cholera, S. boydii, K pneumonia, E. aerogenes, A. baumannii, E. tarda, and M. morganii strains, liquid LB media in 96-well microplates (100 μL/well) and the microdilution method from the CLSI guidelines were used.

The next assay deals with Klebsiella pneumonia. The description is as above. The class given is cell-based. To be noted: Klebsiella pneumoniae, microdilution (Table 6). The protocol:
as §2, §3
Background: In broth dilution the organism is exposed to a series of concentrations in liquid medium.

In the next assay the test system is Morganella morganii. The description is as above. To be noted: microdilution (Table 6). The format is cell-based. As for the experimental part: as §2, §3
A further assay deals with Vibrio cholera. Described as above. The format is cell-based. To be noted: Vibrio cholerae. As for the experimental part:
as §2, §3

For a further assay, the system named is Shigella boydii. Described as above. The class given is cell-based. To be noted: microdilution (Table 6). As for the experimental part:
as §2, §3

The next assay deals with Edwardsiella tarda. The assay is described as above. The class given is cell-based. To be noted: microdilution (Table 6). As for the experimental part:
as §2, §3

Another assay deals with Enterobacter aerogenes. The assay is described as above. The class given is cell-based. To be noted: Klebsiella aerogenes, microdilution (Table 6). As for the experimental part:
as §2, §3

A further assay relates to Salmonella typhimurium. The assay is described as above. To be noted: Salmonella enterica, microdilution (Table 6). The class given is cell-based. As for the experimental part:
as §2, §3

Assay [1] concerns E. coli BW25113 ΔtolC. The experiment in a line: MIC of bacterial growth, macrodilution (Table 2). The format is cell-based, Escherichia coli. The protocol: (§4) Bacterial strains and growth conditions. Luria-Bertani (LB) media (10 g/L tryptone, 10 g/L NaCl, 5 g/L yeast extract, pH 7.2) was used to grow B. subtilis 168, S. aureus FRI100, and P. aeruginosa K1115 strains. For P. aeruginosa PAO1 and K1119 strains and two E. coli BW25113 strains, M8 minimal media (241 mg/L MgSO4, 4 mg/L glucose, 5 mg/L casamino acids, 12.8 g/L Na2HPO4.7H2O, 3 g/L KH2PO4, and 0.5 g/L NaCl) was used. PYE media (2 g/L peptone, 1 g/L yeast extract, 0.8 mM MgSO4, and 0.5 mM CaCl2) was used for culturing C. crescentus cells at 30° C. All cultures were grown at 37° C., except for C. crescentus (30° C.). All cultures were grown while shaking at 200 rpm.
as §1

Assay [2] relates to E. coli BW25113 ΔtolC. Kind of assay: MIC of DCAP analogs, LB media, macrodilution (CLSI). To be noted: Escherichia coli. The format is cell-based. The protocol: Luria-Bertani (LB) media (10 g/L tryptone, 10 g/L NaCl, 5 g/L yeast extract, pH 7.0) was used to grow all the strains represented in Tables 5 and 6. All the cultures were grown at 37° C. All the E. coli strains were grown while shaking at 200 rpm and the clinical pathogens were statically incubated. […]

For another assay, the system named is E. coli BW25113. The experiment in a line: MIC of bacterial growth, macrodilution (Table 2). The format is cell-based. To be noted: Escherichia coli. As for the experimental part: as §4, §1
Another assay has as its system P. aeruginosa PAO1. Kind of assay: MIC of bacterial growth, macrodilution (Table 2). The class given is cell-based. To be noted: Pseudomonas aeruginosa. As for the experimental part: as §4, §1
A further assay deals with P. aeruginosa K1115. The experiment in a line: MIC of bacterial growth, macrodilution (Table 2). The class given is cell-based. To be noted: Pseudomonas aeruginosa. The protocol:
as §4, §1

In the next assay the test system is P. aeruginosa K1119. Kind of assay: MIC of bacterial growth, macrodilution (Table 2). The format is cell-based. To be noted: Pseudomonas aeruginosa. As for the experimental part: as §4, §1
In assay [3] the test system is C. crescentus strain (MT97). Kind of assay: In vivo screen with C. crescentus strain that expresses MipZ-YFP. To be noted: 20 μM in agarose pad; data not shown. The format is cell-based, Caulobacter crescentus. As for the experimental part:
In vivo screen with a Caulobacter crescentus strain that expresses MipZ-YFP. Hits from in vitro screens were tested for activity in vivo. A C. crescentus strain (MT97) that expresses mipZ-yfp from the native mipZ promoter was used. An overnight culture of MT97 was diluted to an absorbance (λ=600 nm) of ˜0.1; the diluted culture was grown further for at least 1 hour prior to compound treatment. Compounds were mixed with a solution of 1% agarose in M2G media to achieve a final concentration of 20 μM. The cells (1 μL per pad) were transferred on top of the compound-containing agarose pad, and the cell morphology and localization of MipZ-YFP were imaged for a period of 24 hours using epifluorescence microscopy. In between microscopic observations, the inoculated pads were incubated at 30° C. to promote growth.
Hits were further screened for antibacterial activity using a Caulobacter crecentus strain that expresses MipZ-YFP as described in Materials and Methods.

The structures appear in SMILES notation.

As usually defined, the MIC is the least concentration at which growth counts as inhibited.

As to `OCC(CO)(CO)NCC(O)Cn1c2ccc(Cl)cc2c2cc(Cl)ccc21` (stereo not drawn) [DCAP, 2-((3-(3,6-dichloro-9H-carbazol-9-yl)-2-hydroxypropyl)amino)-2-(hydroxymethyl)propane-1,3-diol], the MIC with E. aerogenes was determined as 200 µM; in the assay on Acinetobacter baumannii, 200 µM; in the assay with Klebsiella pneumonia, 200 µM; in the assay with Morganella morganii, 200 µM; in the assay on Vibrio cholera, 50 µM; in the assay on Shigella boydii it was 100 µM. Further, the MIC came out at 100 µM in the assay on Edwardsiella tarda; 200 µM in the assay on Enterobacter aerogenes; 100 µM in the assay on Salmonella typhimurium; 20 µM with E. coli BW25113 ΔtolC [1] (Escherichia coli, BW25113); 20 µM in the assay with E. coli BW25113 ΔtolC [2] (BW25113); 20 µM in the assay on E. coli BW25113 ΔtolC [2] (BW25113, read-out: MIC (ΔtolC E. coli)). The MIC in the assay on E. coli BW25113 came out at 80 µM; with P. aeruginosa PAO1, 160 µM; with P. aeruginosa K1115 it was 80 µM; in the assay with P. aeruginosa K1119 it was 160 µM. Moreover, in the assay on E. coli BW25113 ΔtolC [1] (BW25113 vs BW25113 ΔtolC), the “Reduction of MIC on deleting tolC in E. coli BW25113” value is listed as 4 fold. In [3], the “Antibacterial activity in the MipZ-YFP assay” value is listed as “confirmed as having antibacterial activity”.

These data come from US10314816B2, “Antimicrobial compounds, compositions and methods of use thereof” (Wisconsin Alumni Research Foundation, priority 2012, dated 2019).
